From publication PMC9683054, “Synthesis of N-(4-chlorophenyl) substituted pyrano[2,3-c]pyrazoles enabling PKBβ/AKT2 inhibitory and in vitro anti-glioma activity” (Annals of Medicine, 2022)
pIC50: −log10 of the molar value.

Assays:
AKT2/PKBβ = target: T1, AKT2/PKBβ (Homo sapiens, UniProt P31751, S474D); test: […]-γ-ATP radiometric kinase assay with purified kinase and Crosstide peptide; assay type: biochemical
T1 construct: ΔPH-PKBβ-S474D

AKT1/PKBα = target: T2, AKT1/PKBα (Homo sapiens, UniProt P31749, S473D); test: as above; assay type: biochemical
T2 construct: ΔPH-PKBα-S473D
T2 sequence (P31749 118-480 S473D limits assumed): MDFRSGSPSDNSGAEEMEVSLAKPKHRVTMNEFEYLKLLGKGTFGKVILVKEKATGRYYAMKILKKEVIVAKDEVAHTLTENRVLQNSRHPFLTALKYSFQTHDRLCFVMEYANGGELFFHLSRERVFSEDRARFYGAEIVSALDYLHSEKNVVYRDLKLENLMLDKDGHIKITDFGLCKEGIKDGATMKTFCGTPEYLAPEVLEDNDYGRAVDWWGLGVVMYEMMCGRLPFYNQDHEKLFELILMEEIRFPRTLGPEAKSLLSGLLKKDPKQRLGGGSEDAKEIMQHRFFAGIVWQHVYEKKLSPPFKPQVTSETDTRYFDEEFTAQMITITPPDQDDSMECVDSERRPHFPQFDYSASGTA

T1 sequence (P31751 119-481 S474D limits assumed): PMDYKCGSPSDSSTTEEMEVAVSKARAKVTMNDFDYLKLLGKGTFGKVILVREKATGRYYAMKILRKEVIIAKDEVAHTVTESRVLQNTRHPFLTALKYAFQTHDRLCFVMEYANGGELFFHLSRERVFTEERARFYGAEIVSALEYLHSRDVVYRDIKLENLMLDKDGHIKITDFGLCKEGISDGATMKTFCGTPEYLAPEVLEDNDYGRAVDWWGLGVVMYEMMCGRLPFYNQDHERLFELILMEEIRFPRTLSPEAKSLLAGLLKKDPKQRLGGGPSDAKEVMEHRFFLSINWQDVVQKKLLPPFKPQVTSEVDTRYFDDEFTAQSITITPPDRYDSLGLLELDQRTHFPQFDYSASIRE

pIC50 (AKT2/PKBβ): 4.92
pIC50 (AKT1/PKBα): 4.85
SMILES: Cc1nn(-c2ccc(Cl)cc2)c2c1C(c1ccc(-c3ccccc3)cc1)C(C#N)=C(N)O2 (centres unmarked) [4j, 6-Amino-4-(biphenyl-4-yl)-1-(4-chlorophenyl)-3-methyl-1,4-dihydropyrano[2,3-c]pyrazole-5-carbonitrile]
